# Article PMC7933930, “Development of a small molecule that corrects misfolding and increases secretion of Z α1‐antitrypsin” (EMBO Molecular Medicine, 2021)
# What was measured:
# [1] = target: Norepinephrine transporter (Homo sapiens, UniProt P23975); assay: Off‐target panel: Norepinephrine transporter (DRX); assay type: cell-based
# Experimental: (§1) GSK716 selectivity and PK properties were profiled in order to investigate the suitability of GSK716 for progression into in vivo studies and the potential for taking it forward as a clinical candidate for testing in humans. Since GSK716 results in loss of inhibitory activity of α1‐antitrypsin, the effect of the compound was assessed on other closely related serpins. […] Furthermore, there were no off‐target effects in a panel of assays considered predictive of known safety liabilities that precluded further development of GSK716 (Table EV1).
# Serotonin 5HT3 = target: T1, Serotonin 5HT3 (Homo sapiens, UniProt P46098); assay: Off‐target panel: Serotonin 5HT3; assay type: cell-based
# T1 sequence (P46098 24-478): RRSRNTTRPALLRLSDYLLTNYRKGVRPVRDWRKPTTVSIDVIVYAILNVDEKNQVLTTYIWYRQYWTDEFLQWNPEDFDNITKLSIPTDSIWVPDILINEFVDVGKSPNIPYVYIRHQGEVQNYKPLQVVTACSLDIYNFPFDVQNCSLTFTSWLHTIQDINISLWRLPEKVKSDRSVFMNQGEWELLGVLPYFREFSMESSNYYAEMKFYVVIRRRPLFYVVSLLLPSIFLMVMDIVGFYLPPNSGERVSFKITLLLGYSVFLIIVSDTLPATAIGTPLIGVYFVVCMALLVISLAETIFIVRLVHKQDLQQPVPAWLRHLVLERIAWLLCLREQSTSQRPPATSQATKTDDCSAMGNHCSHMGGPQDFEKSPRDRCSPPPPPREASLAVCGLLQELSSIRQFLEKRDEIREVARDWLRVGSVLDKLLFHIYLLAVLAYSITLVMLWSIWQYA
# Experimental: as §1
# α1‐antitrypsin = assay: Equilibrium unfolding in guanidinium hydrochloride with bis‐ANS; assay type: biochemical, human; conditions: 50 µM GSK716, guanidinium hydrochloride; ~ 1.3 M in its absence
# Source text: Polymerisation of α1‐antitrypsin involves transition through a transient intermediate state known as M*, that is readily populated by the Z variant (Dafforn et al, 1999; Knaupp et al, 2010). The M* conformational ensemble appears to be a distinct species between the native state conformation and that of the final polymer. One of the hallmarks of M* is its recognition by environment‐sensitive fluorescent reporter dyes. Thermal shift assays that make use of the dye SYPRO Orange report the stability of the protein native state against heat‐induced unfolding. […] Native state stability can also be probed by equilibrium unfolding using chemical denaturants, where a peak in bis‐ANS fluorescence corresponds with a maximally populated unfolding intermediate (James & Bottomley, 1998). […] The association of GSK716 induced a marked quenching and blue‐shift of the α1‐antitrypsin intrinsic tryptophan fluorescence spectrum (Fig 4D, inset). The rate of change in fluorescence during association of 10µM GSK716 was proportional to the propensity of α1‐antitrypsin mutants to form polymers in vivo: inert (M), mild (S), moderate (Baghdad) and severe (Z) α1‐antitrypsin (Fig 4D, top and bottom). […]
# Sequence of Norepinephrine transporter (P23975 whole entry, species assumed): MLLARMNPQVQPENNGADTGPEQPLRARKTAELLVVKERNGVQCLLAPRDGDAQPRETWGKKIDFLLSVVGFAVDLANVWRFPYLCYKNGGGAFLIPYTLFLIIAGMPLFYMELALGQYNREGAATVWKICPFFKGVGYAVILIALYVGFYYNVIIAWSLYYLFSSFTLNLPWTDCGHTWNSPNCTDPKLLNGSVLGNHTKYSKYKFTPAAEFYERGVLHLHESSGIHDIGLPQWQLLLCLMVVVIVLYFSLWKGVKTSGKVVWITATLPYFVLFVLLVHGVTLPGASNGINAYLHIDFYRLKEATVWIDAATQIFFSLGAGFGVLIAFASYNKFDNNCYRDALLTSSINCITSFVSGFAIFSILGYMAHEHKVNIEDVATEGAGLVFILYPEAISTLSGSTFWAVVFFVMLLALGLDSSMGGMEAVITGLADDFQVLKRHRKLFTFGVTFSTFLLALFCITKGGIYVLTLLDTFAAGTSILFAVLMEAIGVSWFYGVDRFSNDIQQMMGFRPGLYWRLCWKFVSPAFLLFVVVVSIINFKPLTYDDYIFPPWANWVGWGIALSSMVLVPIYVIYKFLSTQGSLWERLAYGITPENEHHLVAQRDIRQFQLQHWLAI
compound,measurement,setting,value
CCC[C@@H](NC(=O)c1cccc2c1CC(=O)N2)[C@@H](O)c1cccc(F)c1C [GSK716],IC50,[1],> 100 µM
same,EC50,Serotonin 5HT3,> 50.1 µM
same,IC50,Serotonin 5HT3,31.6 µM
same,denaturant concentration at peak bis‐ANS fluorescence (maximally populated unfolding intermediate),α1‐antitrypsin,~ 1.9 M
